These results are taken from patent US20130344095A1, “METHOD OF USING CD1D OVER-EXPRESSION IN HUMAN DENDRITIC CELLS TO ENHANCE CD8+ T CELL-BASED AND INVARIANT NATURAL KILLER T CELL-BASED ANTITUMOR IMMUNITY” (priority 2011, published 2013).

Assay [1] concerns MART-1 peptide-specific CD8+ T cells. Briefly: Priming of MART-1 peptide-specific CD8+ T cells by H1.DCs (pentamer staining). It is filed as cell-based, human. Particulars: for T cell priming ability of CD1d-overexpressing H1.DCs: DCs treated 24 hours with 20 μM PPMP or 150 μM NB-DGJ one day after transduction. The protocol:
(§1) The DCs were first transduced by BV-CMV.CD1d-WPRE and pulsed with or without 100 ng/ml α-GC for 24 h one day after transduction. Two days after transduction, the DCs were pulsed with 10 μg/ml MART-1 peptide for 4 h. After washing, 10^5 DCs were co-cultured with 10^6 HLA A2+ PBLs in complete RPMI 1640. After co-culture of 9 days, to detect antigen-specific CTLs, the samples were stained with APC mouse anti-human CD3, FITC-labeled anti-CD8 (ProImmune) and R-PE-labeled A*0201/[…] Pentamer (ProImmune) and analyzed by FACSAria flow cytometer. In some experiments, the CD1d-overexpressing human DCs were pretreated with anti-CD1d blocking antibody (eBioscience, San Diego, Calif.) or its isotype control (eBiosciecne) before applying for T cell priming. To study the effect of glycolipid biosynthesis inhibition on T cell priming, the BVCD1d-transduced human DCs were treated with 20 μM DL-threo-1-Phenyl-2-palmitoylamino-3-morpholino-1-propanol (PPMP; Sigma-Aldrich) or 150 μM N-(n-Butyl)deoxygalactonojirimycin (NB-DGJ; Merck KGaA, Darmstadt, Germany) for 24 hours one day after transduction. In other experiments, the cocultures were restimulated with 10^5 MART-1 peptide-pulsed DCs on day 9 of coculture and analyzed one week after restimulation. To measure antigen-specific CTL activity, the cocultures were stimulated for the third time on day 7 after second stimulation with 10^5 MART-1 peptide-pulsed DCs and used as effectors for lysis of tumor cells one week later.

Assay [2] has the same test system. Briefly: Priming of MART-1 peptide-specific CD8+ T cells by moDCs (pentamer staining). It is filed as cell-based, human. Particulars: DCs treated 24 hours with 20 μM PPMP or 150 μM NB-DGJ one day after transduction. As for the experimental part:
as §1, with “To measure antigen-specific CTL activity, the cocultures were stimulated for the third time on day 7 after second stimulation with 10^5 MART-1 peptide-pulsed DCs and used as effectors for lysis of tumor cells one week later.” left out

Structures are written as SMILES.

For `CCCCCCCCCCCCCCCC(=O)N[C@H](CN1CCOCC1)[C@H](O)c1ccccc1` (racemic) [PPMP, DL-threo-1-Phenyl-2-palmitoylamino-3-morpholino-1-propanol], the “T cell priming ability of CD1d-overexpressing H1.DCs” value in assay [1] is on record as “inhibited”. For the same molecule, in assay [2], the “T cell priming ability of CD1d-overexpressing moDCs” value was “inhibited”.
On to `CCCCN1C[C@H](O)[C@@H](O)[C@@H](O)[C@H]1CO` [NB-DGJ, N-(n-Butyl)deoxygalactonojirimycin], for which the “T cell priming ability of CD1d-overexpressing H1.DCs” value in assay [1] is listed as “inhibited”. Besides, the “T cell priming ability of CD1d-overexpressing moDCs” value in assay [2] was “inhibited”.
Consider `CCCCCCCCCCCCCCCCCCCCCCCCCC(=O)N[C@@H](CO[C@H]1O[C@H](CO)[C@H](O)[C@H](O)[C@H]1O)[C@H](O)[C@H](O)CCCCCCCCCCCCCC` [α-GC, α-galactosylceramide], for which the “priming ability of CD1d-overexpressing H1.DCs with α-GC loading” value in assay [1] (compared with those without α-GC loading (p<0.04)) is listed as “significantly decreased”. In addition, the “effect of α-GC loading on priming of antigen-specific CD8+ T cells” value in assay [1] (mock-transduced, BV-PacPAK6-transduced and CD1d-overexpressing H1.DCs, 100 ng/ml α-GC) is reported as “no obvious beneficial effect”.
